Laboratory results as given in US5321030A, “Creatine analogs having antiviral activity” (priority 1991, dated 1994).
Values after ≈ are worked out from the molar mass of the structure shown. Values joined by “and” are separate entries in the source; they are usually repeats but may differ in a detail not shown here. Equal values may be shown once. Read-outs that look alike come from different tables or passages of the source.

Legend:
[1] = target: T1, creatine kinase (Oryctolagus cuniculus, UniProt P00563); conditions: cited from earlier work
T1 sequence (P00563 whole entry): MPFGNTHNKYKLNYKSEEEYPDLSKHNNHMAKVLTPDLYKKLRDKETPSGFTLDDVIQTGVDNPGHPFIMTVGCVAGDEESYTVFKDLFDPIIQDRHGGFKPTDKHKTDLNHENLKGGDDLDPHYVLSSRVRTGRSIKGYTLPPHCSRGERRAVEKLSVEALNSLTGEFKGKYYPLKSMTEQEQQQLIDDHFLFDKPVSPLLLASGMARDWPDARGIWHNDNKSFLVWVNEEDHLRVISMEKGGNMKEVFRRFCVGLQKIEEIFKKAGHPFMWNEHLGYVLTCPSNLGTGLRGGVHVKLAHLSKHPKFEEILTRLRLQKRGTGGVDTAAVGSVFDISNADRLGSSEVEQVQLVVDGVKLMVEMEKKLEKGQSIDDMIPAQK

[2] = target: T1, creatine kinase; experiment: Phosphorylation by creatine kinase, coupled assay with pyruvate kinase and LDH; format: biochemical; conditions: 40 mM
Experimental: Compound 5/6 (AM 361), where R=CH3, was prepared as described above and assayed for phosphorylation by creatine kinase in a coupled assay with pyruvate kinase and lactate dehydrogenase (LDH) as described (Bergmeyer, H. U., ed. (1974), In: Methods of Enzymatic Analysis, Second English Edition, Volume 4, (Verlag Chemie Weinheim and Academic Press, Inc.: New York, London) pp. 1772-1779). Each compound listed in Table 11 below was tested at a concentration of 40 mM. Compound 5/6 (AM 361) was slowly phosphorylated.

[3] = test system: Influenza B/Hong Kong/5/72; experiment: CPE-reduction assay, Influenza B in MDCK cells; format: cell-based; conditions: 62.5 μg/ml-4 mg/ml; only at the highest concentration
Experimental: Cyclocreatine was prepared at a concentration of 100 mg/ml in MEM, without serum, 0.18% NaHCO3, 50 μg/ml gentamicin. Further dilutions (2-fold dilution scheme) were made in MEM without serum.
Cells (0.2 ml/well) were seeded in 96-well flat bottom tissue culture plates, (Corning Glass Works, Corning, N.Y.). The cells were incubated overnight in order to establish cell monolayers. Growth medium was decanted from the 96-well plates and various dilutions of compound were added to wells of the plate (4 wells/dilution; 0.1 ml/well). Medium alone was added to uninfected cell and virus (no drug) control wells (0.1 ml/well). Virus, diluted in test medium (0.1 ml final volume), was added to all compound test wells of the plate (3 wells/dilution) and to 9 virus control wells. Test medium (0.1 ml/well) without virus was added to all toxicity control wells (1 well/dilution for each compound tested) and to 3 uninfected cell control wells.
The plates were incubated at 37° C. until virus control wells (no drug) had CPE readings near 100% CPE. Cells were then examined microscopically for virus CPE and graded on a scale of 0-4, with 0 being no CPE and 4 being 100% CPE. The cells in toxicity control wells were observed microscopically and graded for morphological changes due to cytotoxicity. […]

[4] = test system: Parainfluenza Type 3 (PIV-3), strain C243; experiment: CPE-reduction assay, parainfluenza type 3 in HEp-2 cells; format: cell-based
[5] = test system: HCMV, strain C8805-37 (DHPG resistant); experiment: microbe, parasite or virus in culture; format: cell-based, Human Cytomegalovirus; parameters: TI50 (CD50 ÷ ED50): unit not given beside the values; conditions: for # Plaques: virus control 11.5 ± 2.1
[6] = test system: HSV-1; experiment: Cytopathic effect (CPE) assay, HSV-1
[7] = test system: HCMV, strain AD-169; experiment: Plaque reduction assay, HCMV strain AD-169; format: cell-based, Human Cytomegalovirus; parameters: TI50 (CD50 ÷ ED50): unit not given here; conditions: for EC50: read-out: ED50 (the source's name)
[8] = test system: HSV-1; experiment: Plaque assay, plaquing efficiency of HSV-1 in serum-starved Vero cells; format: cell-based, Herpes Simplex Type I (HSV-1)
Experimental: Plaque assays were performed on confluent, serum-starved monolayers of Vero cells in 100 mm dishes (Corning). Growth medium was removed by aspiration and 10 ml of low serum media was added. Monolayers were grown in this medium for 5 days. […] After incubation, the inoculum was removed by aspiration and replaced with 2 ml of agarose-medium maintained at 42° C. The agarose-medium overlay contained a fresh 1:1 mixture of: […] A plaque assay was used to confirm the antiviral activity of cyclocreatine detected in the cytopathogenicity studies described above. Vero cells were grown in 100 mm dishes and were serum-starved. Each dish, with the exception of uninfected controls, was inoculated with HSV-1 virus and incubated with various concentrations of cyclocreatine until plaques appeared in the plates exposed to virus alone.

[9] = Cytotoxicity in plaque reduction assay, MRC-5 cells; format: cell-based, human; conditions: human, mrc-5 cells, read-out: CD50 (the source's name)
Experimental: (§1) Cytotoxicity was determined by examination of cells (located away from plaques) in infected wells which had been treated with drug.

[10] = test system: MRC-5 cells; experiment: as above; format: cell-based, human; conditions: HCMV experiments, 8 days of exposure
Experimental: as §1

For `NC1=NCCN1CC(=O)O` [cyclocreatine, 1-carboxymethyl-2-iminoimidazolidine], the “Vmax/Km ratio relative to creatine” value ([1]; forward reaction in vitro) is given as “approximately one-fifth”, the “initial rate of phosphorylation by creatine kinase, % of that of creatine” value ([1]; in vitro, forward reaction) is given as 31% and the “Vmax, % of that of creatine” value ([1]; measured at 1° C.) is given as 90%. For the same molecule, the Ki ([1]; reverse reaction at 1° C., read-out: Ki, competitive inhibitor of P-creatine) was 44 mM, the “% Rate of Creatine” value [2] was 46% and the “Δ in Absorbance/min” value [2] was 0.54. The “effect on CPE” value [3] was “slight inhibitory effect”, the “Average CPE” value ([4]; 5 mg/ml) was 2.8 and the “Average CPE” value ([4]; 10 mg/ml) was 0.5. The “# Plaques” value ([5]; AM-285 156.25 μg/ml) was 9.5, the “# Plaques” value ([5]; AM-285 312.5 μg/ml) was 12 and the “# Plaques” value ([5]; AM-285 625 μg/ml) was 10.5. The “# Plaques” value ([5]; AM-285 1250 μg/ml) was 9.5, the “# Plaques” value ([5]; AM-285 2500 μg/ml) was 6.5 and the “# Plaques” value ([5]; AM-285 5000 μg/ml) was 1.5. The “# Plaques” value ([5]; AM-285 10000 μg/ml) was 0, the inhibition at 156.25 µg/mL ([5]; Human betaherpesvirus 5, MRC5, AM-285 156.25 μg/ml, read-out: % Reduction) was 0% and the inhibition at 312.5 µg/mL ([5]; Human betaherpesvirus 5, MRC5, AM-285 312.5 μg/ml, read-out: % Reduction) was 0%. For the same molecule, the inhibition at 625 µg/mL ([5]; Human betaherpesvirus 5, MRC5, AM-285 625 μg/ml, read-out: % Reduction) was 0%, the inhibition at 1250 µg/mL ([5]; Human betaherpesvirus 5, MRC5, AM-285 1250 μg/ml, read-out: % Reduction) was 0% and the inhibition at 2500 µg/mL ([5]; Human betaherpesvirus 5, MRC5, AM-285 2500 μg/ml, read-out: % Reduction) was 43%. The inhibition at 5000 µg/mL ([5]; Human betaherpesvirus 5, MRC5, AM-285 5000 μg/ml, read-out: % Reduction) was 87%, the inhibition at 10000 µg/mL ([5]; Human betaherpesvirus 5, MRC5, AM-285 10000 μg/ml, read-out: % Reduction) was 100% and the EC50 ([5]; Human betaherpesvirus 5, MRC5, MRC-5 cells, Table 7, read-out: ED50 (the source's name)) was 2780 µg/mL (≈ 19.4 mM). For the same molecule, the “TI50 (CD50 ÷ ED50)” value ([5]; MRC-5 cells, Table 7) was over 3.6, the EC50 ([6]; Human alphaherpesvirus 1, Vero, read-out: 50% effective dose (ED50)) was 1270 µg/mL and ~9 mM and the IC20 ([6]; Human alphaherpesvirus 1, Vero, read-out: concentration required for ~20% inhibition) was 35 mM. For the same molecule, the EC65 ([6]; Human alphaherpesvirus 1, Vero, read-out: dose required to inhibit cytopathogenicity by 65%) was 35 mM, the “effect on percent monolayer cell death, second set of experiments” value ([6]; Vero cells, 0-200 PFU, series of concentrations) was “consistent dose-dependent inhibition” and the “dose response against cytopathogenicity” value ([6]; Vero cells, 0.31-5.0 mg/ml, FIG. 16) was “shows a dose response”. For the same molecule, the “effect on cytopathic effect” value ([6]; contact-inhibited A459 cells, FIG. 7A) was “inhibited the cytopathic effect”, the “effect on cytopathic effect” value ([6]; contact-inhibited BalbC/3T3 cells, FIG. 3A) was “inhibited the cytopathic effect” and the “effect on cytopathic effect” value ([6]; serum-starved DU145 cells, FIG. 5A) was “inhibited the cytopathic effect”. The therapeutic index ([6]; serum-starved Vero cells) was over 7.6, the “effect on cytopathic effect” value ([6]; serum-starved Vero cells, 0.71-4.0 mg/ml, FIG. 1A) was “inhibited the cytopathic effect” and the “TI50 (CD50 ÷ ED50)” value ([7]; Hs-68 cells, Table 5) was “greater than 6.2”. For the same molecule, the “TI50 (CD50 ÷ ED50)” value ([7]; Hs-68 cells, Table 5, listed as AM-285) was over 6.2, the “# Plaques” value ([7]; Hs-68 cells, AM-285 62.5 μg/ml, virus control 74.2 ± 8.6) was 71 and the “# Plaques” value ([7]; Hs-68 cells, AM-285 125 μg/ml, virus control 74.2 ± 8.6) was 65. The “# Plaques” value ([7]; Hs-68 cells, AM-285 260 μg/ml, virus control 74.2 ± 8.6) was 87, the “# Plaques” value ([7]; Hs-68 cells, AM-285 500 μg/ml, virus control 74.2 ± 8.6) was 41 and the “# Plaques” value ([7]; Hs-68 cells, AM-285 1000 μg/ml, virus control 74.2 ± 8.6) was 19.5. The “# Plaques” value ([7]; Hs-68 cells, AM-285 2000 μg/ml, virus control 74.2 ± 8.6) was 1.5, the “# Plaques” value ([7]; Hs-68 cells, AM-285 4000 μg/ml, virus control 74.2 ± 8.6) was 0 and the inhibition at 260 µg/mL ([7]; Human betaherpesvirus 5, AD169, Hs68, read-out: % Reduction) was 0%. For the same molecule, the EC50 ([7]; Human betaherpesvirus 5, AD169, Hs68, Hs-68 cells, Table 5) was 647 µg/mL (≈ 4.52 mM), the inhibition at 62.5 µg/mL ([7]; Human betaherpesvirus 5, AD169, Hs68, Hs-68 cells, AM-285 62.5 μg/ml) was 0% and the inhibition at 125 µg/mL ([7]; Human betaherpesvirus 5, AD169, Hs68, Hs-68 cells, AM-285 125 μg/ml) was 0%. The inhibition at 500 µg/mL ([7]; Human betaherpesvirus 5, AD169, Hs68, Hs-68 cells, AM-285 500 μg/ml) was 45%, the inhibition at 1000 µg/mL ([7]; Human betaherpesvirus 5, AD169, Hs68, Hs-68 cells, AM-285 1000 μg/ml) was 74% and the inhibition at 2000 µg/mL ([7]; Human betaherpesvirus 5, AD169, Hs68, Hs-68 cells, AM-285 2000 μg/ml) was 98%. The inhibition at 4000 µg/mL ([7]; Human betaherpesvirus 5, AD169, Hs68, Hs-68 cells, AM-285 4000 μg/ml) was 100%, the EC50 ([7]; Human betaherpesvirus 5, AD169, MRC5, MRC-5 cells, Table 4) was 610 µg/mL (≈ 4.26 mM) and the inhibition at 62.5 µg/mL ([7]; Human betaherpesvirus 5, AD169, MRC5, MRC-5 cells, AM 285 62.5 μg/ml) was 0%. It also gave an inhibition at 125 µg/mL ([7]; Human betaherpesvirus 5, AD169, MRC5, MRC-5 cells, AM 285 125 μg/ml) of 0%, an inhibition at 250 µg/mL ([7]; Human betaherpesvirus 5, AD169, MRC5, MRC-5 cells, AM 285 250 μg/ml) of 0% and an inhibition at 500 µg/mL ([7]; Human betaherpesvirus 5, AD169, MRC5, MRC-5 cells, AM 285 500 μg/ml) of 54%. It also gave an inhibition at 1000 µg/mL ([7]; Human betaherpesvirus 5, AD169, MRC5, MRC-5 cells, AM 285 1000 μg/ml) of 75%, an inhibition at 2000 µg/mL ([7]; Human betaherpesvirus 5, AD169, MRC5, MRC-5 cells, AM 285 2000 μg/ml) of 100% and an inhibition at 4000 µg/mL ([7]; Human betaherpesvirus 5, AD169, MRC5, MRC-5 cells, AM 285 4000 μg/ml) of 100%. The “TI50 (CD50 ÷ ED50)” value ([7]; MRC-5 cells, Table 4) was “greater than 6.5”, the “TI50 (CD50 ÷ ED50)” value ([7]; MRC-5 cells, Table 4, listed as AM 285) was over 6.5 and the “# Plaques” value ([7]; MRC-5 cells, AM 285 62.5 μg/ml, virus control 26.4 ± 5.2) was 25. The “# Plaques” value ([7]; MRC-5 cells, AM 285 125 μg/ml, virus control 26.4 ± 5.2) was 26, the “# Plaques” value ([7]; MRC-5 cells, AM 285 250 μg/ml, virus control 26.4 ± 5.2) was 23 and the “# Plaques” value ([7]; MRC-5 cells, AM 285 500 μg/ml, virus control 26.4 ± 5.2) was 12. For the same molecule, the “# Plaques” value ([7]; MRC-5 cells, AM 285 1000 μg/ml, virus control 26.4 ± 5.2) was 6, the “# Plaques” value ([7]; MRC-5 cells, AM 285 2000 μg/ml, virus control 26.4 ± 5.2) was 0 and the “# Plaques” value ([7]; MRC-5 cells, AM 285 4000 μg/ml, virus control 26.4 ± 5.2) was 0. For the same molecule, the “effect on plaquing efficiency” value ([8]; FIG. 9) was “reduced the plaquing efficiency”, the number of plaques ([8]; second experiment, 4 mg/ml (755 at 0 mg/ml)) was 120 and the CC50 ([9]; Table 4) was over 4000 µg/mL. For the same molecule, the CC50 ([9]; Table 6) was over 10000 µg/mL, the CC50 ([9]; Table 7) was over 10000 µg/mL and the CC50 ([9]; Table 9A) was over 4000 µg/mL. For the same molecule, the visible cytotoxicity [10] was “no visible signs of cytotoxicity”.
